Reference: patent US9012443B2 (Amgen Inc., priority 2011, dated 2015)

Columns and labels:
Nav 1.7 [1] = biological target: T1, Nav 1.7 (Homo sapiens (Human), UniProt Q15858); assay: Nav 1.7 IWQ in vitro assay (IonWorks Quattro population patch-clamp); type: cell-based; conditions: for IC50: 293 cells stably transfected with Nav 1.7, second part of table, read-out: Nav1.7 IWQ IC50 IP
Summary of the method: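 HEK293 cells stably expressing Nav 1.7, recorded by automated population patch-clamp with a train of depolarizations producing increasing inactivation. Single compound concentration added during 3–8 min unclamped period, then same protocol repeated. Leak-corrected current at 26th pulse to −20 mV gave percent block (duplicate); IC50 fitted from concentration–block curves.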

Nav 1.7 [2] = biological target: T1, Nav 1.7; assay: Nav 1.7 in vitro PX assay (PatchXpress whole cell voltage clamp); type: cell-based; conditions: 293 cells, human Nav1.7, partially inactivated state; read-out: Nav1.7 PX IC50 IP
Summary of the method: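 HEK293 cells stably expressing human Nav1.7, whole-cell voltage clamp on PatchXpress, held at potential giving 20–50% inactivation; current elicited by 20 msec pulse to −10 mV.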

T1 sequence (Q15858 whole entry): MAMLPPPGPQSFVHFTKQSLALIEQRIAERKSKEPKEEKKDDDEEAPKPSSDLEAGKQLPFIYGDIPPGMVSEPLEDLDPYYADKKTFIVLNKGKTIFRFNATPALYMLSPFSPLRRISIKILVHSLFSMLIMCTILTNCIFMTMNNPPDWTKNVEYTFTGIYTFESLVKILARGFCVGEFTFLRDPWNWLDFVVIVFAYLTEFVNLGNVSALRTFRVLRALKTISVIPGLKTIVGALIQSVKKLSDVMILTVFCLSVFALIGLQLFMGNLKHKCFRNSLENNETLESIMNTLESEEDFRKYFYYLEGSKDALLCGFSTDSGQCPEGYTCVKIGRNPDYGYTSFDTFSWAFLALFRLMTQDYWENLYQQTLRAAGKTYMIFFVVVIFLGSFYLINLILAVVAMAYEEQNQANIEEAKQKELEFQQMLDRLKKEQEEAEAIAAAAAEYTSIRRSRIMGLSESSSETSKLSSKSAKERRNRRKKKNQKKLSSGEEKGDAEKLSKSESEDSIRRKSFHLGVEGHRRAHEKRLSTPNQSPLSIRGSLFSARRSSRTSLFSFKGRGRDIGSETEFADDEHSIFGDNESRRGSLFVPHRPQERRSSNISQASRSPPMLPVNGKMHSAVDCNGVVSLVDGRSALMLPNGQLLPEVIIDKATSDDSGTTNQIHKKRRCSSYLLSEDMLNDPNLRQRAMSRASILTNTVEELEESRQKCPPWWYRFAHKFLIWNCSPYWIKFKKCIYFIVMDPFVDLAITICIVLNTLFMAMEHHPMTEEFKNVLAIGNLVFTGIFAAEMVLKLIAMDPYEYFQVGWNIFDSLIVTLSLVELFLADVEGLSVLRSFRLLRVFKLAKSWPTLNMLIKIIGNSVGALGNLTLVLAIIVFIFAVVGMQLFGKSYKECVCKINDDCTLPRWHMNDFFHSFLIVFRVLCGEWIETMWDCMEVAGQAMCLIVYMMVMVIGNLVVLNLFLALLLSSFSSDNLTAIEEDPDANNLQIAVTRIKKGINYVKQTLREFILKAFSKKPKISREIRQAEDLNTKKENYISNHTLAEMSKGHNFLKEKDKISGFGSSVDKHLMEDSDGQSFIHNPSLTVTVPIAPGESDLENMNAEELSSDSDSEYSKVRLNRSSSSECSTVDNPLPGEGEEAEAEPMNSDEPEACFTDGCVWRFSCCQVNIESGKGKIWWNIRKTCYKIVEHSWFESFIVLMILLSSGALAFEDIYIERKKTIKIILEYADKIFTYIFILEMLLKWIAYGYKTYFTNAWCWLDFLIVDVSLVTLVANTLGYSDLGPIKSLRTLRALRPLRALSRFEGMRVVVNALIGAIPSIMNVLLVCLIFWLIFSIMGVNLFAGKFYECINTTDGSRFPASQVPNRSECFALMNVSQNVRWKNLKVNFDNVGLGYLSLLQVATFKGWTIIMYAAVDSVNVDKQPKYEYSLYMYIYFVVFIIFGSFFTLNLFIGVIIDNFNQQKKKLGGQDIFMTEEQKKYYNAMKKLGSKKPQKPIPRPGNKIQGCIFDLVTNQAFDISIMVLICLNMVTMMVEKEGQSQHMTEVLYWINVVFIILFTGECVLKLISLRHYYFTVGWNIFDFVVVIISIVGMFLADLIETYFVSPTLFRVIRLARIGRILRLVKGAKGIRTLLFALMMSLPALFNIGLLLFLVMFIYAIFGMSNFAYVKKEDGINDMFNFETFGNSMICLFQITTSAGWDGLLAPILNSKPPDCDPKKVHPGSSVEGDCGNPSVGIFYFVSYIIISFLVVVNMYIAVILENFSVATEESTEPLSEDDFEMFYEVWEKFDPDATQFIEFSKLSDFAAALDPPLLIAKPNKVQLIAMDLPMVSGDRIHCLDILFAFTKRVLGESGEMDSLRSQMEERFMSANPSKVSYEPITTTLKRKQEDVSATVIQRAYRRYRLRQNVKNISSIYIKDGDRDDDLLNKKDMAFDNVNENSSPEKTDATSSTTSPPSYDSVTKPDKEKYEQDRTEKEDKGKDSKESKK

Row | IC50 (Nav 1.7 [1]) | IC50 (Nav 1.7 [2]) | Nav1.7 Single Point Data IWQ (at […]) (%) (Nav 1.7 [1]) | Compound
1 | 110 nM | 588 nM | – | CN1CCN(c2cc(C(F)(F)F)ccc2-c2cccc3cc(S(=O)(=O)Nc4nccs4)ccc23)CC1 [Example 84, 5-(2-(4-METHYLPIPERAZIN-1-YL)-4-(TRIFLUOROMETHYL)PHENYL)-N-(THIAZOL-2-YL)NAPHTHALENE-2-SULFONAMIDE 2,2,2-TRIFLUOROACETATE]
2 | 270 nM | 1470 nM | – | CC1CCCN1c1cccc2cc(S(=O)(=O)Nc3ncns3)ccc12 (centres unmarked) [Example 91]
3 | 10 nM | 57.2 nM | – | COc1ccccc1-c1cccc2cc(S(=O)(=O)Nc3ncns3)ccc12 [Example 94]
4 | 80 nM | 323 nM | – | O=S(=O)(Nc1ncns1)c1ccc2c(C3CCCN3c3ccccn3)cccc2c1 (centres unmarked) [Example 96]
5 | 460 nM | 2220 nM | – | O=S(=O)(Nc1ncns1)c1ccc2c(C3CCCN3Cc3ccccc3)cccc2c1 (centres unmarked) [Example 97]
6 | 2220 nM | 13000 nM | – | O=S(=O)(Nc1nccs1)c1ccc2c(C3CCCN3Cc3ccccc3)cccc2c1 (centres unmarked) [Example 98]
7 | – | – | 25.3% | CC(C)(C#N)c1ccccc1-c1nccc2cc(S(=O)(=O)Nc3nccs3)ccc12 [Example 385, 1-(2-(2-CYANOPROPAN-2-YL)PHENYL)-N-(THIAZOL-2-YL)ISOQUINOLINE-6-SULFONAMIDE]
8 | – | – | 20.6% | Cc1cnc(OC[C@@H]2CCOC2)c(-c2nccc3cc(S(=O)(=O)Nc4nccs4)ccc23)c1 [Example 387, (R)-1-(5-METHYL-2-((TETRAHYDROFURAN-3-YL)METHOXY)PYRIDIN-3-YL)-N-(THIAZOL-2-YL)ISOQUINOLINE-6-SULFONAMIDE]
9 | – | – | 36.4% | O=S(=O)(Nc1ccncn1)c1ccc2c(N3CCCC(c4cccc(F)c4)C3)nccc2c1 (centres unmarked) [Example 402, 1-(3-(3-FLUOROPHENYL)PIPERIDIN-1-YL)-N-(PYRIMIDIN-4-YL)ISOQUINOLINE-6-SULFONAMIDE]
10 | – | – | 33.5% | CC1CN(c2cccc(F)c2)CCN1c1nccc2cc(S(=O)(=O)Nc3ccncn3)ccc12 (centres unmarked) [Example 403, 1-(4-(3-FLUOROPHENYL)-2-METHYLPIPERAZIN-1-YL)-N-(PYRIMIDIN-4-YL)ISOQUINOLINE-6-SULFONAMIDE]
11 | – | – | 20.2% | CN1CCN(Cc2cccc(-c3nccc4cc(S(=O)(=O)Nc5ccncn5)ccc34)c2)CC1 [Example 431, 1-(3-((4-METHYLPIPERAZIN-1-YL)METHYL)PHENYL)-N-(PYRIMIDIN-4-YL)ISOQUINOLINE-6-SULFONAMIDE]
12 | – | – | 34.6% | O=S(=O)(Nc1ccncn1)c1ccc2c(-c3ccc(N4CCCCC4)c(F)c3F)nccc2c1 [Example 432, 1-(2,3-DIFLUORO-4-(PIPERIDIN-1-YL)PHENYL)-N-(PYRIMIDIN-4-YL)ISOQUINOLINE-6-SULFONAMIDE]
13 | – | – | 20.0% | O=S(=O)(Nc1ccncn1)c1ccc2c(-c3cccc4cc[nH]c34)nccc2c1 [Example 434, 1-(1H-INDOL-7-YL)-N-(PYRIMIDIN-4-YL)ISOQUINOLINE-6-SULFONAMIDE]
14 | – | – | 24.7% | COc1cc(-c2ncc(Cl)s2)ccc1-c1nccc2cc(S(=O)(=O)Nc3ccncn3)ccc12 [Example 458, 1-(4-(5-CHLOROTHIAZOL-2-YL)-2-METHOXYPHENYL)-N-(PYRIMIDIN-4-YL)ISOQUINOLINE-6-SULFONAMIDE]
15 | – | – | 28.3% | O=S(=O)(Nc1nccs1)c1ccc2c(N3CCCCC3c3cccnc3)ncnc2c1 (centres unmarked) [Example 536, 4-(2-(PYRIDIN-3-YL)PIPERIDIN-1-YL)-N-(THIAZOL-2-YL)QUINAZOLINE-7-SULFONAMIDE]
16 | – | – | 41.2% | O=S(=O)(Nc1nccs1)c1ccc2c(N3CCCC3c3ccccc3)ncnc2c1 (centres unmarked) [Example 537, 4-(2-PHENYLPYRROLIDIN-1-YL)-N-(THIAZOL-2-YL)QUINAZOLINE-7-SULFONAMIDE]
17 | – | – | 20.3% | O=S(=O)(Nc1ncns1)c1ccc2c(N3CCCC3c3ccncc3)ncnc2c1 (centres unmarked) [Example 539, 4-(2-(PYRIDIN-4-YL)PYRROLIDIN-1-YL)-N-(1,2,4-THIADIAZOL-5-YL)QUINAZOLINE-7-SULFONAMIDE]

The next lines start with the molecule.

Row | Compound | IC50 (Nav 1.7 [1]) | IC50 (Nav 1.7 [2]) | Nav1.7 Single Point Data IWQ (at […]) (%) (Nav 1.7 [1])
18 | O=S(=O)(Nc1ncns1)c1ccc2c(N3CCC[C@@H]3c3cccnc3)cccc2c1 (single isomer, unassigned) [Example 87] | 460 nM | 1320 nM | –
19 | O=S(=O)(Nc1ncns1)c1ccc2c(N3CCC[C@H]3c3ccncc3)cccc2c1 (single isomer, unassigned) [Example 89] | 290 nM | 2330 nM | –
20 | O=S(=O)(Nc1ncns1)c1ccc2c(N3CCCC3c3cccnc3)cccc2c1 (centres unmarked) [Example 85] | 10 nM | 173 nM | –
21 | O=S(=O)(Nc1ncns1)c1ccc2c(N3CCCC3c3ccncc3)cccc2c1 (centres unmarked) [Example 88] | 20 nM | 238 nM | –
22 | O=S(=O)(Nc1ncns1)c1ccc2c(C3CCCN3)cccc2c1 (centres unmarked) [Example 95, 5-(PYRROLIDIN-2-YL)-N-(1,2,4-THIADIAZOL-5-YL)NAPHTHALENE-2-SULFONAMIDE 2,2,2-TRIFLUOROACETATE] | 540 nM | 7960 nM | –
23 | Cc1cnc(OCc2ccccc2)c(-c2nccc3cc(S(=O)(=O)Nc4nccs4)ccc23)c1 [Example 380, 1-(2-(BENZYLOXY)-5-METHYLPYRIDIN-3-YL)-N-(THIAZOL-2-YL)ISOQUINOLINE-6-SULFONAMIDE] | – | – | 40%
24 | Cc1cnc(OCC2CCC2)c(-c2nccc3cc(S(=O)(=O)Nc4nccs4)ccc23)c1 [Example 381, 1-(2-(CYCLOBUTYLMETHOXY)-5-METHYLPYRIDIN-3-YL)-N-(THIAZOL-2-YL)ISOQUINOLINE-6-SULFONAMIDE] | – | – | 26.5%
25 | Cc1cnc(OCCN(C)C)c(-c2nccc3cc(S(=O)(=O)Nc4ccncn4)ccc23)c1 [Example 382, 1-(2-(2-(DIMETHYLAMINO)ETHOXY)-5-METHYLPYRIDIN-3-YL)-N-(PYRIMIDIN-4-YL)ISOQUINOLINE-6-SULFONAMIDE] | – | – | 27.8%
26 | Cc1cnc(OC2CCCN(C)C2)c(-c2nccc3cc(S(=O)(=O)Nc4ccncn4)ccc23)c1 (centres unmarked) [Example 383, 1-(5-METHYL-2-((1-METHYLPIPERIDIN-3-YL)OXY)PYRIDIN-3-YL)-N-(PYRIMIDIN-4-YL)ISOQUINOLINE-6-SULFONAMIDE] | – | – | 30.2%
27 | COc1cc(C(F)(F)F)ccc1-c1nccc2cc(S(=O)(=O)n3ccc(N)n3)ccc12 [Example 390, 1-((1-(2-METHOXY-4-(TRIFLUOROMETHYL)PHENYL)ISOQUINOLIN-6-YL) SULFONYL)-1H-PYRAZOL-3-AMINE] | – | – | 19.8%
28 | COc1cc(C(F)(F)F)ccc1-c1nccc2cc(S(=O)(=O)Nc3cnncn3)ccc12 [Example 391, 1-(2-METHOXY-4-(TRIFLUOROMETHYL)PHENYL)-N-(1,2,4-TRIAZIN-5-YL)ISOQUINOLINE-6-SULFONAMIDE] | – | – | 34.8%
29 | CC(C)c1ccc2[nH]ncc2c1-c1nccc2cc(S(=O)(=O)Nc3ccncn3)ccc12 [Example 430, 1-(5-ISOPROPYL-1H-INDAZOL-4-YL)-N-(PYRIMIDIN-4-YL)ISOQUINOLINE-6-SULFONAMIDE] | – | – | 35.4%
30 | Cc1cc(S(=O)(=O)N(C)C)ccc1-c1nccc2cc(S(=O)(=O)Nc3ccncn3)ccc12 [Example 433] | – | – | 21.2%
31 | COc1cc(-c2ccncc2)ccc1-c1nccc2cc(S(=O)(=O)Nc3ccncn3)ccc12 [Example 451, 1-(2-METHOXY-4-(PYRIDIN-4-YL)PHENYL)-N-(PYRIMIDIN-4-YL)ISOQUINOLINE-6-SULFONAMIDE] | – | – | 27.5%
32 | COc1cc(-c2cnn(C)c2)ccc1-c1nccc2cc(S(=O)(=O)Nc3ccncn3)ccc12 [Example 454, 1-(2-METHOXY-4-(1-METHYL-1H-PYRAZOL-4-YL)PHENYL)-N-(PYRIMIDIN-4-YL)ISOQUINOLINE-6-SULFONAMIDE] | – | – | <20%
33 | COc1cc(C(=O)CCCCO)ccc1-c1nccc2cc(S(=O)(=O)Nc3ccncn3)ccc12 [Example 463, 1-(4-(5-HYDROXYPENTANOYL)-2-METHOXYPHENYL)-N-(PYRIMIDIN-4-YL)ISOQUINOLINE-6-SULFONAMIDE] | – | – | 41.1%
34 | COc1cc(C(F)(F)F)ccc1-c1nccc2cc(S(=O)(=O)Nc3cc(C(F)(F)F)ncn3)ccc12 [Example 496, 1-(2-METHOXY-4-(TRIFLUOROMETHYL)PHENYL)-N-(6-(TRIFLUOROMETHYL)PYRIMIDIN-4-YL)ISOQUINOLINE-6-SULFONAMIDE] | – | – | 24.7%
35 | COc1cc(C(F)F)c(F)cc1-c1ncnc2cc(S(=O)(=O)NC3=NCCS3)ccc12 [Example 519, 4-(4-(DIFLUOROMETHYL)-5-FLUORO-2-METHOXYPHENYL)-N-(4,5-DIHYDROTHIAZOL-2-YL)QUINAZOLINE-7-SULFONAMIDE] | – | – | <20%
36 | COc1cc(C(F)(F)F)ccc1-c1ncnc2cc(S(=O)(=O)NC3=NCCS3)ccc12 [Example 520, N-(4,5-DIHYDROTHIAZOL-2-YL)-4-(2-METHOXY-4-(TRIFLUOROMETHYL)PHENYL)QUINAZOLINE-7-SULFONAMIDE] | – | – | <20%
37 | CCC1CCCCN1c1ncnc2cc(S(=O)(=O)Nc3nccs3)ccc12 (centres unmarked) [Example 535, 4-(2-ETHYLPIPERIDIN-1-YL)-N-(THIAZOL-2-YL)QUINAZOLINE-7-SULFONAMIDE] | – | – | 26%
38 | O=S(=O)(Nc1nccs1)c1ccc2c(N3CCCCC3c3ccccc3)ncnc2c1 (centres unmarked) [Example 538, 4-(2-PHENYLPIPERIDIN-1-YL)-N-(THIAZOL-2-YL)QUINAZOLINE-7-SULFONAMIDE] | – | – | 31.2%
39 | COc1cc(C(F)(F)F)ccc1-c1c(O)ncc2cc(S(=O)(=O)Nc3nccs3)ccc12 [Example 545, 3-HYDROXY-4-(2-METHOXY-4-(TRIFLUOROMETHYL)PHENYL)-N-(THIAZOL-2-YL)ISOQUINOLINE-7-SULFONAMIDE] | – | – | 23.7%
